Here are results for one compound from patent publication US20070270431A1, “Preventive and/or Therapeutic Medicine for Rheumatoid Arthritis” (Kowa Co., Ltd., priority 2004, published 2007).

This assay relates to rats of a collagen-induced arthritis model. Briefly: Suppression of both-hindlimb edema in rats of a collagen-induced arthritis model. Type of assay: in vivo, rat. The following applies: 30 days after initial sensitization, pyridazinone 30 mg/kg twice daily, methotrexate 0.05 mg/kg once daily. The protocol: The effect on suppressing edema of both hindlimbs by 2-benzyl-5-(4-chlorophenyl)-6-4-(methylthio)phenyl]-2H-pyridazin-3-one (synthesized through the aforementioned method) and methotrexate were determined both in the cases of combined administration and solo administration through the following procedure. For the experiment-rats of a collagen-induced arthritis model were used. (FDA, CBER, CDER, CDRH: Guidance for industry—Clinical development programs for drugs devices and biological products for the treatment of rheumatoid arthritis (RA)-(1999)). Lewis female rats (LFW/Crj) (obtained from Charles River Laboratories Japan, Inc.) were employed as test animals.
For each 8-week-old LEW/Crj rat, the volume of a portion from the ankle to the toe tip of each hindlimb was measured by means of a plethysmometer for small animals (TK-101CMP, product of Unicom) and the total volume was employed as a volume of the hindlimbs (hereinafter referred to as both-hindlimb volume) at the start of the test (hereinafter referred to as Pre value). By use of the Pre value as an index, the rats were divided into groups by one-parameter-based block randomization so that the values in the groups were averaged out.
The collagen emulsion for sensitization employed for inducing arthritis in rats was prepared by homogenizing a 0.3% Type II collagen liquid (product of Collagen Research Center), adjuvant peptide (product of Peptide Institute, Inc.), and adjuvant incomplete Freund (product of DIFCO) by means of a Handy Micro Homogenizer (product of Microtec Nition) under cooling with ice. The thus-prepared emulsion was intracutaneously injected to 10 sites in the back of each rat at 0.1 mL/site, to thereby initially sensitize the rat. Seven days after initial sensitization the same emulsion (0.12 mL) was intracutaneously injected to the tail head of the rat for booster sensitization
Administration of medicines was carried out on the day after initial sensitizaton to day 29. To the 2-benzyl-5-(4-chlorophenyl)-68 4-(methylthio)phenyl]-2H-pyridazin-3-one solo administration group, the medicine was orally administered twice; in the morning (9:00 to 11:00) and in the evening (15:30 to 17:30) at a dose of 30 mg/kg. […]
Thirty days after initial sensitization, both-hindlimb volume was measured. Volume of both-hindlimb edema was calculated by subtracting the Pre value from the thus-measured value.
Table 1 and FIG. 1 show both-hindlimb edema volume of rats which was measured 30 days after initial sensitization where the rats were divided into the 2-benzyl-5-(4-chlorophenyl)-6-[4-(methylthio)phenyl]-2H-pyridazin-3-one solo administration group, the methotrexate solo administration group, and the combined administration group. […]

On to `CSc1ccc(-c2nn(Cc3ccccc3)c(=O)cc2-c2ccc(Cl)cc2)cc1` [2-benzyl-5-(4-chlorophenyl)-6-[4-(methylthio)phenyl]-2H-pyridazin-3-one], for which the Both-hindlimb edema volume (oral administration from day after sensitization to day 29, average of seven rats ± standard error) amounted to 1.04 ± 0.32 mL. For the setting “oral”, the “Edema suppression effect (in words)” value is recorded as “did not result in potent edema suppression effects” and the “Relative index (average edema volume of administration group / control group)” value was 0.66. The Percent edema suppression (vs control group, oral) was 34%.
